# Test results: PMC4220016, “The binding characteristics and orientation of a novel radioligand with distinct properties at 5-HT3A and 5-HT3AB receptors” (Neuropharmacology, 2014)
# Several values for one entry are separate records, joined by “and”; a condition that tells them apart may be missing. Identical values can stand only once. Like-named read-outs stand apart in the source and are kept apart here.
# Experiments:
# [1] = biological target: T1, 5-HT3A receptors (Homo sapiens, UniProt P46098); test: biochemical
# T1 sequence (P46098 24-478): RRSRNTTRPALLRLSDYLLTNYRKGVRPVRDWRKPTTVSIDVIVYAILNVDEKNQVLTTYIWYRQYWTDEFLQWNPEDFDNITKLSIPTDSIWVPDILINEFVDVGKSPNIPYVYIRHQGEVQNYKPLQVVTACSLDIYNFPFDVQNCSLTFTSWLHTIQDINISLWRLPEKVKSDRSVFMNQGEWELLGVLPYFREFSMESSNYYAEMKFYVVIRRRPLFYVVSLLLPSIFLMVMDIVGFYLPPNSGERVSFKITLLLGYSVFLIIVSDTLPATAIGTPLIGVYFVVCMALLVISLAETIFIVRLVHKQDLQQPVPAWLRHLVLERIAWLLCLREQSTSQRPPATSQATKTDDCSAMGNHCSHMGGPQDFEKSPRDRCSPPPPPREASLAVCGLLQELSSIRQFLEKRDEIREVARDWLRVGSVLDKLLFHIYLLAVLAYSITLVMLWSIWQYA
# [2] = biological target: T2, 5-HT3AB receptors (Homo sapiens, UniProt O95264+P46098); test: Kinetic measurements (association, dissociation) at 5-HT3AB receptors; format: binding; parameters: expressed in transfected cells; host or cells: HEK 293; conditions: for koff: from kobs plot; for Kd: from kinetic rates, Equ (4), read-out: Kd(nM) (kon/koff)
# T2 sequence (P46098 24-478): T1 sequence (P46098 24-478)
# T2 sequence (O95264 22-441): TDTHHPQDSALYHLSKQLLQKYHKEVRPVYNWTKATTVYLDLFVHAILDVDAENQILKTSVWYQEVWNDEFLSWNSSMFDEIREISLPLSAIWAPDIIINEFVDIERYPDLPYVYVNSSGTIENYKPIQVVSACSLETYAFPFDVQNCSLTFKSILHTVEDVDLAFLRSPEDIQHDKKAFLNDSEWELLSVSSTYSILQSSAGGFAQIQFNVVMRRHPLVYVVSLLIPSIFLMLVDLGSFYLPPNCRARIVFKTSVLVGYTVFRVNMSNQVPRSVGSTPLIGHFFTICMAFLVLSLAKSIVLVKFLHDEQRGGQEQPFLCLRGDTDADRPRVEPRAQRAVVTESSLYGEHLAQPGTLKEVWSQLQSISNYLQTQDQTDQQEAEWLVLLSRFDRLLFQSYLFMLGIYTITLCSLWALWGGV
# [3] = biological target: T2, 5-HT3AB receptors; test: biochemical; conditions: Ki (nM) competition
# [4] = biological target: 5-HT3A receptors; parameters: method as in Thompson et al., 2012; conditions: ref Thompson et al., 2012, cited from earlier work
# [5] = biological target: T3, α7 nACh receptors (Homo sapiens, UniProt P36544); conditions: unlabelled VUF10166, ref Thompson et al., 2012; cited from earlier work
# [6] = biological target: T4, 5-HT3A receptor F226C (Homo sapiens, UniProt P46098, F221C); test: Saturation binding of [^3H]VUF10166 at 5-HT3A receptor mutant; conditions: F226C Kd versus wild type
# T4 construct: expressed in transfected cells; host or cells: HEK 293
# Protocol: (§1) Mutagenesis was performed using the QuikChange method (Agilent Technologies Inc., California, USA) on human 5-HT3A cDNA (accession number: P46098) cloned into pcDNA3.1 (Invitrogen, Paisley, UK). Cysteine residues were substituted for amino acids throughout each of the binding loops A–E (Fig. 1). To facilitate comparisons with previous work, we use the numbering of the equivalent residues in the mouse 5-HT3A subunit; for human numbering 5 should be subtracted from each residue number.
# (§2) All data were analysed using GraphPad Prism 4.03. […].
# [7] = biological target: T5, 5-HT3A receptor Y153C (Homo sapiens, UniProt P46098, Y148C); test: as above; conditions: Y153C Kd versus wild type
# T5 construct: expressed in transfected cells; host or cells: HEK 293
# Protocol: as §1, §2
# [8] = biological target: T6, 5-HT3A receptor L126C (Homo sapiens, UniProt P46098, L121C); test: as above; conditions: L126C Kd versus wild type
# T6 construct: expressed in transfected cells; host or cells: HEK 293
# Protocol: as §1, §2
# [9] = biological target: T1, 5-HT3A receptors; test: biochemical; format: binding; parameters: expressed in transfected cells; host or cells: HEK 293; conditions: 5-HT3A
# [10] = biological target: T1, 5-HT3A receptors; test: Kinetic measurements (association, dissociation) at 5-HT3A receptors; format: binding; parameters: expressed in transfected cells; host or cells: HEK 293; conditions: for koff: intercept of plot of kobs versus radioligand concentration; for kon: slope of plot of kobs versus radioligand concentration
# [11] = test system: 5-HT3 receptors; parameters: method as in Thompson et al., 2012; conditions: at μM concentrations; ref Thompson et al., 2012; cited from earlier work
# [12] = biological target: T3, α7 nACh receptors; test: Saturation binding of [^3H]VUF10166 on α7 nACh receptors; conditions: data not shown
# [13] = biological target: T7, 5-HT3A receptor R92C (Homo sapiens, UniProt P46098, R87C); test: Saturation binding of [^3H]VUF10166 at 5-HT3A receptor mutant; conditions: R92C Kd versus wild type
# T7 construct: expressed in transfected cells; host or cells: HEK 293
# Protocol: as §1
# (§3) All data were analysed using GraphPad Prism 4.03.
# [14] = biological target: T8, 5-HT3A receptor H185C (Homo sapiens, UniProt P46098, H180C); test: as above; conditions: H185C Kd versus wild type
# T8 construct: expressed in transfected cells; host or cells: HEK 293
# Protocol: as §1, §3
# [15] = biological target: T9, 5-HT3A receptor S114C (Homo sapiens, UniProt P46098, S109C); test: as above; conditions: S114C Kd versus wild type
# T9 construct: expressed in transfected cells; host or cells: HEK 293
# Protocol: as §1, §3
# [16] = biological target: T10, 5-HT3A receptor Q151C (Homo sapiens, UniProt P46098, Q146C); test: as above; conditions: Q151C Kd versus wild type
# T10 construct: expressed in transfected cells; host or cells: HEK 293
# Protocol: as §1, §3
# [17] = biological target: T11, 5-HT3A receptor K112C (Homo sapiens, UniProt P46098, K107C); test: as above; conditions: K112C Kd versus wild type
# T11 construct: expressed in transfected cells; host or cells: HEK 293
# Protocol: as §1, §3
# [18] = biological target: T12, 5-HT3A receptor N232C (Homo sapiens, UniProt P46098, N227C); test: as above; conditions: N232C Kd versus wild type
# T12 construct: expressed in transfected cells; host or cells: HEK 293
# Protocol: as §1, §3
# [19] = biological target: T13, 5-HT3A receptor I139C (Homo sapiens, UniProt P46098, I134C); test: as above; conditions: I139C Kd versus wild type
# T13 construct: expressed in transfected cells; host or cells: HEK 293
# Protocol: as §1, §3
# [20] = biological target: T14, 5-HT3A receptor I71C (Homo sapiens, UniProt P46098, I66C); test: as above; conditions: I71C Kd versus wild type
# T14 construct: expressed in transfected cells; host or cells: HEK 293
# Protocol: as §1, §3
# [21] = biological target: T15, 5-HT3A receptor N128C (Homo sapiens, UniProt P46098, N123C); test: as above; conditions: N128C Kd versus wild type
# T15 construct: expressed in transfected cells; host or cells: HEK 293
# Protocol: as §1, §3
# [22] = biological target: T16, 5-HT3A receptor R145C (Homo sapiens, UniProt P46098, R140C); test: as above; conditions: R145C Kd versus wild type
# T16 construct: expressed in transfected cells; host or cells: HEK 293
# Protocol: as §1, §3
# [23] = biological target: T1, 5-HT3A receptors; test: Competition binding with [^3H]VUF10166 at 5-HT3A receptors
# [24] = biological target: T1, 5-HT3A receptors; conditions: competition with 0.7 nM [^3H]BRL43694
# [25] = biological target: T2, 5-HT3AB receptors; conditions: competition with 0.7 nM [^3H]BRL43694
# [26] = biological target: T2, 5-HT3AB receptors; test: Competition binding with [^3H]VUF10166 at 5-HT3AB receptors
# [27] = test system: 5-HT3AB receptors; parameters: method as in Nakamura et al., 2013; conditions: ref Nakamura et al., 2013; cited from earlier work
# [28] = test system: 5-HT3A receptors; parameters: method as in Nakamura et al., 2013; conditions: ref Nakamura et al., 2013; cited from earlier work
# [29] = second component, [^3H]VUF10166 > 3 nM
# T5 sequence (P46098 24-478 Y148C): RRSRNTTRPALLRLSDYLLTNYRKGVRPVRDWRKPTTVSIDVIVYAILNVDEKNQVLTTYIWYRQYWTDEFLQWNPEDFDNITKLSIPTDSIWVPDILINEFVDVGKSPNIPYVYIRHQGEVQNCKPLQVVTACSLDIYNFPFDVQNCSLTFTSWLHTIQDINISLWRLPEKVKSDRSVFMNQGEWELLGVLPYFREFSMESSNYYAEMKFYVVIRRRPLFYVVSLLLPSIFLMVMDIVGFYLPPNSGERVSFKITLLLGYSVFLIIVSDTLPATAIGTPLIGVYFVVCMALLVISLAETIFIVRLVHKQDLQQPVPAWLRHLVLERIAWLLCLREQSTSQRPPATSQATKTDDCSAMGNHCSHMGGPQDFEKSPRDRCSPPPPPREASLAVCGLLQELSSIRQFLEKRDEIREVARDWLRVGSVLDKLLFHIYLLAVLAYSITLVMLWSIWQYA
# T3 sequence (P36544 23-502): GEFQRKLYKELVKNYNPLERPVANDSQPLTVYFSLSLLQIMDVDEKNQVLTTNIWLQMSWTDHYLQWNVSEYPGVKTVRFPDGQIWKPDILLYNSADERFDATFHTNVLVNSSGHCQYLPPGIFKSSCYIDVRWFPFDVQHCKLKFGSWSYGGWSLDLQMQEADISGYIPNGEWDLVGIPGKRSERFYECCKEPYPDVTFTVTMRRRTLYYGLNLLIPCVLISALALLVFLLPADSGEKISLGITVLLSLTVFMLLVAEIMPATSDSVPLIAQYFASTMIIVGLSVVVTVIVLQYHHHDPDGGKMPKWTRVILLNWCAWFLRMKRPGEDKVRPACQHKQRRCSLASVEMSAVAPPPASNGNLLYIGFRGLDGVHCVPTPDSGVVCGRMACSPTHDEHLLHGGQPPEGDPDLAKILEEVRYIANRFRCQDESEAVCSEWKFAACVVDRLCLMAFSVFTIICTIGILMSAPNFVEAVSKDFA
# T6 sequence (P46098 24-478 L121C): as the sequence (P46098 24-478 Y148C) above, with L98C, C125Y counted along it
# T4 sequence (P46098 24-478 F221C): as the sequence (P46098 24-478 Y148C) above, with C125Y, F198C counted along it
# T15 sequence (P46098 24-478 N123C): as the sequence (P46098 24-478 Y148C) above, with N100C, C125Y counted along it
# T11 sequence (P46098 24-478 K107C): as the sequence (P46098 24-478 Y148C) above, with K84C, C125Y counted along it
# T13 sequence (P46098 24-478 I134C): as the sequence (P46098 24-478 Y148C) above, with I111C, C125Y counted along it
# T16 sequence (P46098 24-478 R140C): as the sequence (P46098 24-478 Y148C) above, with R117C, C125Y counted along it
# T12 sequence (P46098 24-478 N227C): as the sequence (P46098 24-478 Y148C) above, with C125Y, N204C counted along it
# T8 sequence (P46098 24-478 H180C): as the sequence (P46098 24-478 Y148C) above, with C125Y, H157C counted along it
# T14 sequence (P46098 24-478 I66C): as the sequence (P46098 24-478 Y148C) above, with I43C, C125Y counted along it
# T7 sequence (P46098 24-478 R87C): as the sequence (P46098 24-478 Y148C) above, with R64C, C125Y counted along it
# T10 sequence (P46098 24-478 Q146C): as the sequence (P46098 24-478 Y148C) above, with Q123C, C125Y counted along it
# T9 sequence (P46098 24-478 S109C): as the sequence (P46098 24-478 Y148C) above, with S86C, C125Y counted along it
smiles,measurement,setting,value
"CN1CCN(c2nc3ccccc3nc2Cl)CC1 [VUF10166, 2-chloro-3-(4-methylpiperazin-1-yl)quinoxaline]",Ki,[1],0.24 ± 0.11 nM
same,kon,"[2]; first component of two site fit, [^3H]VUF10166 < 3 nM",1.02e+06 M⁻¹ s⁻¹
same,koff,"[2]; first component, [^3H]VUF10166 < 3 nM, read-out: koff (converted)",0.0004 s⁻¹
same,Kd,[2]; first component,0.38 nM
same,Kd,[2]; second component (>3 nM),22.4 nM
same,kon,"[2]; second component of two site fit, [^3H]VUF10166 > 3 nM",120000 M⁻¹ s⁻¹
same,koff,[2]; [29],0.0027 s⁻¹
same,koff,"[2]; second component, [^3H]VUF10166 > 3 nM, read-out: koff (converted)",0.00267 s⁻¹
same,Ki,[3],37 nM and 36.7 nM
same,pKi,[4]; 5-HT3A receptors,~10
same,affinity at 5-HT3A relative to 5-HT3AB receptors,[4],~100 fold
same,competition with [^3H]epibatidine (in words),[5],does not compete
same,Fold change,[6],7
same,Fold change,[7],10
same,Fold change,[8],~4
same,Kd,"[9]; tritiated ligand, transfected HEK 293 cells, 0 °C, read-out: Kd (nM) saturation",0.18 ± 0.04 nM
same,Kd,"[10]; calculated from kinetic rates, Equ (4), read-out: Kd(nM) (kon/koff)",0.16 nM
same,koff,[10]; read-out: koff (converted),0.000167 s⁻¹
same,kon,[10]; read-out: kon (converted),1.04e+06 M⁻¹ s⁻¹
same,agonist activity (in words),[11],low efficacy partial agonist
"[3H]CN1CCN(c2nc3ccccc3nc2Cl)CC1 [[^3H]VUF10166, 2-chloro-3-(4-[^3H]methylpiperazin-1-yl)quinoxaline]",non-specific binding,[9]; non-specific binding determined with 2 mM quipazine,< 5%
same,Bmax,[9]; paired samples,2229 ± 158 fmol/mg
same,specific saturable binding (in words),[12],no specific saturable binding
[3H]CN1CCN(c2nc3ccccc3nc2Cl)CC1 [[^3H]VUF10166] [2-chloro-3-(4-[^3H]methylpiperazin-1-yl)quinoxaline],average kon determined from kobs (Equ (5)),[2]; below 3 nM [^3H]VUF10166,8.77e+07 M/min
same,"koff from dissociation, double exponential, fast component",[2]; dissociation in 2 mM quipazine,0.00378 ± 0.000933 s⁻¹
same,"koff from dissociation, double exponential, slow component",[2]; dissociation in 2 mM quipazine,0.000167 ± 5e-05 s⁻¹
same,koff,"[2]; first component, [^3H]VUF10166 < 3 nM",0.0004 s⁻¹
same,koff,[2]; [29],0.0027 s⁻¹
same,Fold change,[6],7.6
same,Fold change,[7],9.7
same,Fold change,[8],4.2
same,kon determined directly from kobs values using Equ (5),[10],8.24e+07 M/min
same,"koff from dissociation, single exponential",[10]; dissociation in 2 mM quipazine,0.000183 ± 1.7e-05 s⁻¹
same,koff,[10],0.00017 s⁻¹
same,kon,[10],1.04e+06 M⁻¹ s⁻¹
same,Fold change,[13],4.2
same,Fold change,[14],4.5
same,Fold change,[15],1.0
same,Fold change,[16],8.7
same,Fold change,[17],1.6
same,Fold change,[18],9.0
same,Fold change,[19],7.4
same,Fold change,[20],1.1
same,Fold change,[21],3.3
same,Fold change,[22],4.6
"NC(N)=NC(N)=Nc1cccc(Cl)c1 [mCPBG, meta-chlorophenylbiguanide]",inhibition of specific [^3H]VUF10166 binding (in words),[23]; 5-HT3A,inhibited
same,pIC50 5-HT3A,[23]; competition with 0.2 nM [^3H]VUF10166,7.49 ± 0.06 (4)
same,pIC50 5-HT3A,[24],6.88 ± 0.13 (7)
same,pIC50 5-HT3AB,[25],6.64 ± 0.12 (5)
same,inhibition of specific [^3H]VUF10166 binding (in words),[26]; 5-HT3AB,inhibited
same,pIC50 5-HT3AB,[26]; competition with 0.6 nM [^3H]VUF10166,6.07 ± 0.20 (5)
CC[C@@]1(O)C(=O)OCc2c1cc1n(c2=O)Cc2cc3c(CN(C)C)c(O)ccc3nc2-1 [topotecan],effect on 5-HT3AB receptors (in words),[27],potentiate
same,effect on 5-HT3A receptors (in words),[28],inhibit
